Source: article PMC10689823, “Discovery of a Drug-like, Natural Product-Inspired DCAF11 Ligand Chemotype” (Nature Communications, 2023)

Biological target: BRD4S-TagBFP reporter (Homo sapiens, UniProt O60885)
Test: FACS-based CRISPR/Cas9 BRD4 protein stability screen
Conditions: Mageck_Gene level
Method: The virus containing supernatant was cleared of cellular debris by filtration through a 0.45-µm PES filter and used to transduce KBM7 BRD4-BFP reporter cells harboring a doxycycline inducible Cas9 allele at a multiplicity of infection (MOI) of 0.05 and 1,000-fold library representation. Library-transduced cells were selected with G418 (1 mg ml^−1, Gibco) for 14 days, expanded and Cas9 expression was induced with DOX (0.4 µg ml^−1, PanReac AppliChem).
Cells were washed with and stored in FACS buffer (PBS containing 5% FBS and 1 mM EDTA) at 4 °C overnight. The next day, cells were strained trough a 35 µm nylon mesh and sorted on a BD FACSAria™ Fusion (BD Biosciences) using a 85 µm nozzle. Aggregates, dead (ZombieNIR positive), Cas9-negative (GFP) and sgRNA library-negative (Thy1.1-APC) cells were excluded, and the remaining cells were sorted based on their BRD4-BFP and mCherry levels into BRD4^HIGH (10% of cells), BRD4^MID (30%) and BRD4^LOW (10%) fractions. For each sample, cells corresponding to at least 2,000-fold library representation were sorted per replicate.
Next-generation sequencing (NGS) libraries of sorted cell fractions were prepared as previously described[25]. In brief, genomic DNA was isolated by cell lysis (10 mM Tris-HCl, 150 mM NaCl, 10 mM EDTA, 0.1% SDS), proteinase K treatment (New England Biolabs) and DNAse-free RNAse digest (Thermo Fisher Scientific), followed by two rounds of phenol extraction and 2-propanol precipitation. Isolated genomic DNA was subjected to several freeze–thaw cycles before nested polymerase chain reaction (PCR) amplification of the sgRNA cassette.
Barcoded NGS libraries for each sorted population were generated using a two-step PCR protocol using AmpliTaq Gold (Invitrogen). The resulting PCR products were purified using Mag-Bind® TotalPure NGS beads (Omega Bio-tek) and amplified in a second PCR introducing the standard Illumina adapters. The final Illumina libraries were bead-purified, pooled and sequenced on a HiSeq 3500 platform (Illumina).
Screen analysis was performed as previously described[25]. Briefly, sequencing reads were quantified using the crispr-process-nf Nextflow workflow, available at https://github.com/ZuberLab/crispr-process-nf/tree/566f6d46bbcc2a3f49f51bbc96b9820f408ec4a3. For statistical analysis, we used the crispr-mageck-nf Nextflow workflow, available at https://github.com/ZuberLab/crispr-mageck-nf/tree/c75a90f670698bfa78bfd8be786d6e5d6d4fc455. To calculate gene-level enrichment, the sorted populations (BRD4^HIGH or BRD4^LOW) were compared to the BRD4^MID populations in MAGeCK (0.5.9)[46], using median normalized read counts.

High_lfc (Gene DCAF1): 0.07
High_logP (Gene DCAF1): 0.4
Low_lfc (Gene DCAF1): 0.08
Low_logP (Gene DCAF1): 0.47
High_lfc (Gene DCAF4): 0.04
High_logP (Gene DCAF4): 0.26
Low_lfc (Gene DCAF4): 0.5
Low_logP (Gene DCAF4): 1.14
High_lfc (Gene DCAF5): -0.31
High_logP (Gene DCAF5): 0.03
Low_lfc (Gene DCAF5): -0.2
Low_logP (Gene DCAF5): 0.09
High_lfc (Gene DCAF6): -0.27
High_logP (Gene DCAF6): 0.06
Low_lfc (Gene DCAF6): 0.14
Low_logP (Gene DCAF6): 0.62
High_lfc (Gene DCAF7): -0.06
High_logP (Gene DCAF7): 0.19
Low_lfc (Gene DCAF7): 0.05
Low_logP (Gene DCAF7): 0.29
High_lfc (Gene DCAF8): -0.08
High_logP (Gene DCAF8): 0.19
Low_lfc (Gene DCAF8): 0.22
Low_logP (Gene DCAF8): 0.46
High_lfc (Gene DCAF12): -0.19
High_logP (Gene DCAF12): 0
Low_lfc (Gene DCAF12): -0.38
Low_logP (Gene DCAF12): 0
High_lfc (Gene DCAF13): -0.32
High_logP (Gene DCAF13): 0.14
Low_lfc (Gene DCAF13): -0.17
Low_logP (Gene DCAF13): 0.23
High_lfc (Gene DCAF15): 0.02
High_logP (Gene DCAF15): 0.29
Low_lfc (Gene DCAF15): 0.34
High_lfc (Gene DCAF16): 0.41
High_logP (Gene DCAF16): 1.29
Low_lfc (Gene DCAF16): 0.15
Low_logP (Gene DCAF16): 0.08
High_lfc (Gene DCAF17): -0.4
High_logP (Gene DCAF17): 0.08
Low_lfc (Gene DCAF17): -0.25
Low_logP (Gene DCAF17): 0.08
High_lfc (Gene DCUN1D1): -0.16
High_logP (Gene DCUN1D1): 0.04
Low_lfc (Gene DCUN1D1): -0.14
Low_logP (Gene DCUN1D1): 0.41
High_lfc (Gene DCUN1D2): -0.24
High_logP (Gene DCUN1D2): 0.01
Low_lfc (Gene DCUN1D2): 0.34
Low_logP (Gene DCUN1D2): 0.85
High_lfc (Gene DCUN1D3): 0.11
High_logP (Gene DCUN1D3): 0.22
Low_lfc (Gene DCUN1D3): 0.24
Low_logP (Gene DCUN1D3): 1.2
High_lfc (Gene DCUN1D4): -0.01
High_logP (Gene DCUN1D4): 0.07
Low_lfc (Gene DCUN1D4): 0.03
Low_logP (Gene DCUN1D4): 0.28
High_lfc (Gene DCUN1D5): 0.22
High_logP (Gene DCUN1D5): 0.38
Low_lfc (Gene DCUN1D5): -0.23
Low_logP (Gene DCUN1D5): 0.04
High_lfc (Gene DDA1): 0.21
High_logP (Gene DDA1): 0.55
Low_lfc (Gene DDA1): -0.07
Low_logP (Gene DDA1): 0.09
High_lfc (Gene DDB1): 1.6
Low_lfc (Gene DDB1): -0.07
Low_logP (Gene DDB1): 0.14
High_lfc (Gene DDB2): -0.17
High_logP (Gene DDB2): 0.1
Low_lfc (Gene DDB2): 0.02
Low_logP (Gene DDB2): 0.41
High_lfc (Gene DET1): 0.13
High_logP (Gene DET1): 0.2
Low_lfc (Gene DET1): 0.1
Low_logP (Gene DET1): 0.55
High_lfc (Gene DHX15): 0.88
High_logP (Gene DHX15): 3.08
Low_lfc (Gene DHX15): 0.33
Low_logP (Gene DHX15): 0.15
High_lfc (Gene DTL): -0.32
High_logP (Gene DTL): 0.12
Low_lfc (Gene DTL): 0.6
Low_logP (Gene DTL): 1.9
High_lfc (Gene ECT2L): 0.08
High_logP (Gene ECT2L): 0.35
Low_lfc (Gene ECT2L): 0.18
Low_logP (Gene ECT2L): 0.73
High_lfc (Gene EED): -0.14
High_logP (Gene EED): 0.1
Low_lfc (Gene EED): -0.33
Low_logP (Gene EED): 0.06
High_lfc (Gene EIF4A1): -0.23
High_logP (Gene EIF4A1): 0.17
Low_lfc (Gene EIF4A1): 0.22
Low_logP (Gene EIF4A1): 0.27
High_lfc (Gene EIF4A3): -0.5
High_logP (Gene EIF4A3): 0.12
Low_lfc (Gene EIF4A3): 0.83
Low_logP (Gene EIF4A3): 3.36
High_lfc (Gene ELOA2): 0.27
High_logP (Gene ELOA2): 1.5
Low_lfc (Gene ELOA2): -0.21
Low_logP (Gene ELOA2): 0.02
High_lfc (Gene ELOA3): -0.14
High_logP (Gene ELOA3): 0.04
Low_lfc (Gene ELOA3): -0.68
Low_logP (Gene ELOA3): 0
High_lfc (Gene ELOA3D): -0.17
High_logP (Gene ELOA3D): 0.16
Low_lfc (Gene ELOA3D): -0.44
Low_logP (Gene ELOA3D): 0.05
High_lfc (Gene ELOA): 0.14
High_logP (Gene ELOA): 0.38
Low_lfc (Gene ELOA): 0.01
Low_logP (Gene ELOA): 0.08
High_lfc (Gene ELOB): 0.32
High_logP (Gene ELOB): 1.07
Low_lfc (Gene ELOB): 0.26
Low_logP (Gene ELOB): 0.54
High_lfc (Gene ELOC): 0.2
High_logP (Gene ELOC): 0.44
Low_lfc (Gene ELOC): 0.2
Low_logP (Gene ELOC): 0.9
High_lfc (Gene ENC1): -0.31
High_logP (Gene ENC1): 0
Low_lfc (Gene ENC1): -0.06
Low_logP (Gene ENC1): 0.22
High_lfc (Gene EPHA4): -0.08
High_logP (Gene EPHA4): 0.25
Low_lfc (Gene EPHA4): -0.27
Low_logP (Gene EPHA4): 0.02
High_lfc (Gene ERCC8): -0.71
High_logP (Gene ERCC8): 0.04
Low_lfc (Gene ERCC8): -0.42
Low_logP (Gene ERCC8): 0.02
High_lfc (Gene ESCO1): 0.09
High_logP (Gene ESCO1): 0.53
Low_lfc (Gene ESCO1): -0.29
Low_logP (Gene ESCO1): 0.05
High_lfc (Gene FAM9A): -0.13
High_logP (Gene FAM9A): 0.02
Low_lfc (Gene FAM9A): -0.08
Low_logP (Gene FAM9A): 0.64
High_lfc (Gene FBXL2): -0.04
High_logP (Gene FBXL2): 0.25
Low_lfc (Gene FBXL2): -0.25
Low_logP (Gene FBXL2): 0.03
High_lfc (Gene FBXL3): -0.55
High_logP (Gene FBXL3): 0
Low_lfc (Gene FBXL3): 0
Low_logP (Gene FBXL3): 0.15
High_lfc (Gene FBXL4): -0.13
High_logP (Gene FBXL4): 0.04
Low_lfc (Gene FBXL4): 0.11
Low_logP (Gene FBXL4): 0.32
High_lfc (Gene FBXL5): -0.03
High_logP (Gene FBXL5): 0.1
Low_lfc (Gene FBXL5): -0.22
Low_logP (Gene FBXL5): 0.05
High_lfc (Gene FBXL6): -0.15
High_logP (Gene FBXL6): 0.09
Low_lfc (Gene FBXL6): -0.18
Low_logP (Gene FBXL6): 0.14
High_lfc (Gene FBXL7): -0.1
High_logP (Gene FBXL7): 0.12
Low_lfc (Gene FBXL7): 0.04
Low_logP (Gene FBXL7): 0.13
High_lfc (Gene FBXL8): -0.02
High_logP (Gene FBXL8): 0.08
Low_lfc (Gene FBXL8): -0.1
Low_logP (Gene FBXL8): 0.23
High_lfc (Gene FBXL12): -0.02
High_logP (Gene FBXL12): 0.03
Low_lfc (Gene FBXL12): 0.09
Low_logP (Gene FBXL12): 0.2
High_lfc (Gene FBXL13): 0.02
High_logP (Gene FBXL13): 0.26
Low_lfc (Gene FBXL13): 0.01
Low_logP (Gene FBXL13): 0.21
High_lfc (Gene FBXL14): -0.22
High_logP (Gene FBXL14): 0.01
Low_lfc (Gene FBXL14): -0.05
Low_logP (Gene FBXL14): 0.13
High_lfc (Gene FBXL15): 0.13
High_logP (Gene FBXL15): 0.24
Low_lfc (Gene FBXL15): 0.16
Low_logP (Gene FBXL15): 0.21
High_lfc (Gene FBXL16): 0.23
High_logP (Gene FBXL16): 0.22
Low_lfc (Gene FBXL16): 0.16
Low_logP (Gene FBXL16): 0.37
High_lfc (Gene FBXL17): -0.14
High_logP (Gene FBXL17): 0.03
Low_lfc (Gene FBXL17): -0.04
Low_logP (Gene FBXL17): 0.45
High_lfc (Gene FBXL18): 0.05
High_logP (Gene FBXL18): 0.34
Compound: Cc1sc2c(c1C)C(c1ccc(Cl)cc1)=NC(CC(=O)NCCOCCOCCOCCOc1c(Br)cc(C=C3C(=O)Nc4ccc(Br)cc43)cc1Br)c1nnc(C)n1-2 (centres unmarked) [Compound 10]
